Here are results for 1 compound from article PMC4667195, “Tumor-selective peptide-carrier delivery of Paclitaxel increases in vivo activity of the drug” (Scientific Reports, 2015).

For assay [1], the system named is SKOV-3 human ovary adenocarcinoma cells. The assay is described as follows: Cytotoxicity (MTT growth inhibition) in SKOV-3. It counts as cell-based. Conditions: SK-OV-3, 1 h incubation, wash, then 6 days at 37 °C without drug, 128 pM to 10 μM, performed twice in triplicate. Here is the method:
(§1) Growth inhibition was assessed by 3-(4,5-dimethylthiazol-2-yl)-2,5-diphenyltetrazolium bromide (MTT). […] The experiment was performed twice in triplicate.
(§2) EC50 values were calculated by non-linear regression analysis using Graph Pad Prism 5.03 software.

In assay [2] the test system is MDA-MB 231 human breast adenocarcinoma cells. The assay is described as follows: Cytotoxicity (MTT growth inhibition) in MDA-MB 231. It counts as cell-based. Conditions: 1 h incubation, wash, then 6 days at 37 °C without drug, 128 pM to 10 μM, performed twice in triplicate. Here is the method: as §1, §2
Assay [3] relates to orthotopic MDA-MB 231-luc2 tumors. The assay is described as follows: Tumor growth in orthotopic MDA-MB 231-luc2 mouse model. It counts as in vivo, athymic nude mice. The following applies: 2.86 μmol/Kg i.v. every 4 days.
Experimental: MDA-MB 231-luc2 cells were injected orthotopically in the mammary fat pads of female athymic nude mice. […] Tumor growth was monitored by measuring volumes every 4 days with a caliber rule and by imaging luciferase reporter expression in tumor cells with a Photon Imager system at 8-day intervals.
Orthotopic breast tumors were established by injecting 1 × 10^6 MDA-MB 231-luc2 cells into the fourth mammary fat pad of athymic nude mice (Harlan Laboratories). Tumor growth was monitored every four days by measuring two perpendicular diameters with caliber. Tumor volume (V) was calculated by the following equation: V = (a^2 × b)/2, where “a” is the width of the tumor (small diameter), and b the length (large diameter), both in millimeters[22].
Treatments were started when the tumors reached at least 80 mm^3 in volume.
Tumor growth was also monitored by imaging luciferase reporter expression in tumor cells. To track MDA-MB 231-luc2 cells, bioluminescent optical imaging was performed using a Photon Imager system (Biospace Lab, Paris, France) including a cooled charge-coupled device (CCD) camera. Prior to imaging, mice were anaesthetized by intraperitoneal (i.p.) injection of 275 mg/kg Avertin. […] Bioluminescence was quantified by automatic measurement. ROI optical images were analyzed with M3 Vision software (Biospace Lab, Paris, France).

SMILES strings stand for the structures.

As for `CC(=O)O[C@H]1C(=O)[C@@]2(C)[C@H]([C@H](OC(=O)c3ccccc3)[C@]3(O)C[C@H](OC(=O)[C@H](O)[C@@H](NC(=O)c4ccccc4)c4ccccc4)C(C)=C1C3(C)C)[C@]1(OC(C)=O)CO[C@@H]1C[C@@H]2O` [PTX, Paclitaxel], the EC50 (as a rule, the concentration at which the effect is half-maximal) in assay [1] turned out to be 29 nM; in assay [2] it was 62 nM. Moreover, the “Slope of average tumor volume (percentage of the volume at day 4) versus time” value in assay [3] (days 4, 8, 12 and 16, n = 5 mice) stood at 5.5. Moreover, the “Effect on tumor growth (in words)” value in assay [3] (during treatment, days 4 to 16) is given as “clear reduction in tumor growth with respect to controls, but not tumor regression”.
